Measurements published in US9371295B2, “Compounds for use in the treatment of disorders that are ameliorated by inhibition of HDAC” (IRBM—Science Park S.p.A., priority 2012, dated 2016).

Key:
K562 cells = assay: Erythroid differentiation of K562 cells by benzidine staining; type: cell-based, human; details: optimized concentration, mean ± SD of six experiments
Protocol: The biological activity of the compounds of the present application was evaluated by examining the capacity to modulate the expression of γ-globin genes in the human K562 cell line, which is capable of differentiating in the erythroid manner by expressing genes for γ-globin if treated with modifiers of the biological response that are suitable for the purpose (Bianchi et al, J. Haematol., 113, 4, p. 951-961, 2001). The human K562 cells were cultured in RPMI 1640 medium (Sigma, St Louis, Mo., USA) supplemented with 10% foetal bovine serum (FBS; Analitical de Mori, Milan, Italy), 100 units/mL penicillin and 100 μg/mL streptomycin. Cell growth was determined according to cell number/ml, using a cell counter (Coulter Electronics, Hialeah, Fla., USA). For experiments, K562 cell cultures were initiated at 3×10^4/mL and the chemical inducers at the indicated concentrations added. Following 3-5 days incubation without a medium change erythroid differentiation was determined by staining the cells in a solution containing 0.2% benzidine in 0.5 M glacial acetic acid, 10% H2O2. Benzidine positivity indicates the presence of intracellular Hb.
The erythroid differentiation of K562 cells was investigated following treatment with selected compounds of the invention. The effect on cell proliferation was first determined for all tested molecules by culture of K562 cells in the presence of increasing concentration of the compounds. The cell number per sample was then determined after 3, 4 and 5 days. The IC50 values reported in Table 3 for the antiproliferative effect were calculated from the concentration of the compounds necessary to decrease the cell number to 50% of the values obtained in control untreated K562 cell cultures, after a 5 days culture period. Erythroid differentiation was measured by benzidine staining after 5, 6 and 7 days of cell culture and by quantitative reverse transcriptase polymerase-chain reaction (RT-qPCR) to quantify the expression of γ-globin mRNA. Different concentrations of tested compounds were employed because of their differing antiproliferative effects; accordingly, concentrations were chosen to maximize the erythroid induction effect without extensive reduction of cell viability. In Table 3 the % of benzidine positive cells and the increase in γ-globin mRNA assayed by RT-qPCR after 6 days of culture period are reported.
Table 4 reports induction of erythroid differentiation in K562 cells treated with an optimized concentration of the compound 2 in comparison with known inducers. Compound 2 is able to stimulate an increase of the proportion of benzidine-positive (hemoglobin producing) K562 cells. This is associated with an increase of the expression of γ-globin mRNA.

HDAC in Hela cells = assay: HDAC Hela Cell Based assay
[1] = system: human γ-globin promoter (EGFP reporter) in K562 cells; assay: HbF activation assay on K562 (EGFP/RFP reporter model system for screening of inducers of fetal hemoglobin); type: cell-based; details: 60 hours
Summary of the method: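 K562 cells stably carrying EGFP under the human γ-globin promoter and far-red FP under the β-globin promoter, with the LCR, were seeded at 1000 cells/well. Cells were exposed to compounds (0.25% DMSO final) for 60 h at 37 °C. Fluorescence was read by plate cytometry, normalized to Hoechst nuclei count, which also indicated proliferation or death.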

HDAC1 = target: T1, HDAC1 (Homo sapiens, UniProt Q13547); assay: HDAC1 assay (Fluor-de-Lys fluorescent deacetylase assay); type: biochemical; details: read-out: hHDAC IC50
T1 construct: made in house
T1 sequence (Q13547 whole entry): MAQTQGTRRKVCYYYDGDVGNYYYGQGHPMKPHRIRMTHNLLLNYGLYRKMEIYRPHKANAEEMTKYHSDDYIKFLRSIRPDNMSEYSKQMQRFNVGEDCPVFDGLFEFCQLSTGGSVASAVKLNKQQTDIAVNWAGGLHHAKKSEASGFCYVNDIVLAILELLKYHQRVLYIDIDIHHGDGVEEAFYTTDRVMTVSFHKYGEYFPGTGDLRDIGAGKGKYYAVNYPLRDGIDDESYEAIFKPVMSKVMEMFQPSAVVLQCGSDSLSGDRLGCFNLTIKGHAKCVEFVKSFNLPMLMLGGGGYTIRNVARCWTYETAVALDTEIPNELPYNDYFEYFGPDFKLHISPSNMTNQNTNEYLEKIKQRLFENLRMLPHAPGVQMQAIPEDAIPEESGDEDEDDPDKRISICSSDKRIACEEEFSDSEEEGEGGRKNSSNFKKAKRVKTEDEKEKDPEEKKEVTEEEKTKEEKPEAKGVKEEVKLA
Summary of the method: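 Serially diluted compounds were pre-incubated with purified FLAG-tagged HDAC1 (1-2 nM final; from transfected HeLa cells) or HeLa nuclear extract, then given the Fluor-de-Lys acetyl-lysine substrate/developer; deacetylation read as fluorescence. Reactions were stopped with TSA (3 uM final).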

[2] = Rat PK studies, oral dose; type: in vivo, Sprague-Dawley rats; details: male, Sprague-Dawley, plasma, po 10 mg/kg
Protocol: Rats Male Sprague-Dawley rats (250-350 g) were used for the absorption disposition studies. In each rat an indwelling cannula was implanted in the right jugular vein for blood sampling. The surgery was performed under light anaesthesia (Ketamine-Xilazine (85 mg/kg and 2.5 mg/kg respectively i.m.) one day prior the experiment). During the kinetic study, all animals were housed individually in plastic metabolism cages, and were unrestrained throughout the experiment. Compounds (6 mg/mL) were dissolved in 20% DMSO/60% PEG400/20% water for intravenous administration, and dissolved or suspended in 1% methylcellulose for oral administration (2 mg/ml). After an overnight fast, the rats received an i.v. (via caudal vein) or an oral dose of the compound. Blood samples were collected at different times point after dosing. Plasma was separated immediately after blood sampling by centrifugation, and the plasma samples were kept frozen (−20° C.) until assayed by LC/MS/MS.
Analytical procedures: Plasma samples were extracted using Liquid Handling Robot MultiProbe Packard by protein precipitation with acetonitrile. Then the samples were centrifuged (3000 rpm×15 min at 4° C.) and the supernatant transferred and dried under nitrogen. The samples were reconstituted in water/acetonitrile 90/10 and then injected directly into an HPLC column. Sample analyses were performed using a an API 3000 or/and API 2000 or/and API 4000 Mass Spectrometer interfaced via the Turbo Ion Spray (ESI)/APCI to an LC system consisting of an HTS PAL CTC autosampler and an Agilen HP 1100 Binary Pump. The results are calculated using Analyst Software linear regression with 1/x*x weighting. The Assay Precision was calculated for the Quality Controls by Watson Lims database.
Pharmacokinetic Analysis: The plasma clearance (CLp) of the compounds were calculated (using Watson PK program) as the dose divided by the area under the plasma concentration-time curve from time zero to infinity (AUC0-∞). The apparent half-life was estimated from the slope of the terminal phase of the log plasma concentration-time data. The volume of distribution (Vdss) was determined using the following noncompartmental method: Vdss=(Dose IV×AUMC)/(AUC0-∞)2
where AUMC is the total area under the first moment of the drug concentration time curve from time zero to infinity. Bioavailability was estimated as the AUC0-∞ ratio following oral and intravenous administration, normalized for differences in dose.

[3] = Mouse in vivo pharmacokinetics, oral dose; details: plasma
Protocol: Compounds of the invention were evaluated in in vitro and in vivo pharmacokinetic studies.

[4] = Intrinsic clearance in pooled rat liver microsomes; type: in vitro ADME; details: pH 7.4
Protocol: Assays were performed in presence of 0.5 mg/ml of microsomal protein, with a NADPH-generating system (1 mM NADP, 2.5 mM glucose 6-phosphate and 2 U/ml glucose 6-phosphate dehydrogenase) in 100 mM potassium phosphate buffer containing 3.3 mM MgCl2 (pH 7.4). Tested compounds were stored in 10 mM DMSO solution and incubated at 1 μM final concentration (final DMSO concentration in incubation less than 0.1%). Microsomes and substrates were preincubated at 37° C. for 5 min and then the enzymatic reactions were initiated by the addition of cofactors and incubated at 37° C. for up to 90 min. Incubations were terminated by the addition of an equivalent volume of cold acetonitrile containing I.S. Control incubations, where the substrate was incubated in the same buffer system containing pRLM without the NADPH-generating system, were also run.

[5] = Intrinsic clearance in pooled human liver microsomes; type: in vitro ADME; details: pH 7.4
[6] = Intrinsic clearance in pooled mouse liver microsomes; type: in vitro ADME; details: pH 7.4
human γ-globin gene = details: transgenic mice; Cao, H Exp. Hematol. 2005; cited from earlier work

For `O=c1ccc2ccc3occc3c2o1` [Angelicin, reference compound], the “Benzidine positive cells (%)” value (K562 cells) was 62 ± 8.5%.
With `CCCC(=O)O` [Butyric acid, reference compound] the “Benzidine positive cells (%)” value (K562 cells) was 32 ± 6.4%.
With `N.N.[Cl][Pt][Cl]` [Cisplatin, reference compound] the “Benzidine positive cells (%)” value (K562 cells) was 63 ± 8.5%.
Work on `CCC(=O)CCCCC[C@H](NC(=O)C12CCN(CC1)CC2)c1ncc(-c2cc3ccccc3nc2OC)o1` [Compound 41, (S)-N-(1-(5-(2-methoxyquinolin-3-yl)oxazol-2-yl)-7-oxononyl)quinuclidine-4-carboxamide] yielded an IC50 (HDAC in Hela cells) of under 100 nM, an EC50 [1] of over 1000 nM and an IC50 (HDAC1) of under 100 nM. For the same compound, the AUC [2] was 10.1 µM·h and the Cmax [2] was 470 nM.
Compound `CCC(=O)CCCCC[C@@H](NC(=O)C1CN(C)C1)c1ncc(-c2cc3ccccc3nc2OC)o1` [Compound 42, (R)-N-(1-(5-(2-methoxyquinolin-3-yl)oxazol-2-yl)-7-oxononyl)-1-methylazetidine-3-carboxamide] has an AUC ([3]; po 5 mg/kg) of 5.93 µM·h, a Cmax ([3]; po 5 mg/kg) of 670 nM and a microsomal CLint at 1 μM [4] of 21 µL/min/mg. For the same compound, the IC50 (HDAC in Hela cells) was 100 to 1000 nM, the EC50 [1] was over 1000 nM and the microsomal CLint at 1 μM [5] was 3 µL/min/mg. The IC50 (HDAC1) was under 100 nM and the microsomal CLint at 1 μM [6] was 15 µL/min/mg.
Work on `CCC(=O)CCCCC[C@H](NC(=O)C1CN(C)C1)c1ncc(-c2cc3ccccc3[nH]c2=O)o1` [Compound 44, (S)-1-methyl-N-(7-oxo-1-(5-(2-oxo-1,2-dihydroquinolin-3-yl)oxazol-2-yl)nonyl)azetidine-3-carboxamide] yielded a microsomal CLint at 1 μM [4] of 17 µL/min/mg, an IC50 (HDAC in Hela cells) of under 100 nM and an EC50 [1] of 100 to 1000 nM. For the same compound, the microsomal CLint at 1 μM [5] was 11 µL/min/mg, the IC50 (HDAC1) was under 100 nM and the microsomal CLint at 1 μM [6] was 11 µL/min/mg.
With `CCC(=O)CCCCC[C@H](NC(=O)C1CN(C)C1)c1nnc(-c2cc3ccccc3nc2OC)o1` [Compound 52, (S)-N-(1-(5-(2-methoxyquinolin-3-yl)-1,3,4-oxadiazol-2-yl)-7-oxononyl)-1-methylazetidine-3-carboxamide] the AUC ([3]; po 10 mg/kg) was 1.75 µM·h, the Cmax ([3]; po 10 mg/kg) was 630 nM and the microsomal CLint at 1 μM [4] was 30 µL/min/mg. The IC50 (HDAC in Hela cells) was 100 to 1000 nM, the EC50 [1] was over 1000 nM and the microsomal CLint at 1 μM [5] was 60 µL/min/mg. The IC50 (HDAC1) was under 100 nM, the AUC [2] was 5.91 µM·h and the Cmax [2] was 580 nM. The microsomal CLint at 1 μM [6] was 19 µL/min/mg.
For `Nc1ccn([C@@H]2O[C@H](CO)[C@@H](O)[C@@H]2O)c(=O)n1` [Cytosin arabinoside, reference compound], the “Benzidine positive cells (%)” value (K562 cells) was 75 ± 5.4%.
For `NC(=O)NO` [Hydroxyurea, reference compound], the “Benzidine positive cells (%)” value (K562 cells) was 30 ± 7.5%.
In the case of `Oc1ccc(C=Cc2cc(O)cc(O)c2)cc1` [Resveratrol, reference compound], the “Benzidine positive cells (%)” value (K562 cells) is reported as 70 ± 8.5%.
For `CCCC(=O)NO` [butyryl hydroxamate], the “increase of human γ/murine α-globin mRNA ratios” value (human γ-globin gene) is listed as 33.9%.
In the case of `CCC(=O)NO` [propionyl hydroxamate], the “increase of human γ/murine α-globin mRNA ratios” value (human γ-globin gene) is given as 71%.
